The numbers were not newly measured in US20210128795A1, “SPIRAL COATED STENT WITH CONTROLLABLE GRADIENT DEGRADATION, PREPARATION METHOD THEREOF AND APPLICATION THEREOF” (Zhuhai Ruizhan Biomaterials Co., Ltd., priority 2018, published 2021), which cites them from elsewhere.

Like-named read-outs stand apart in the source and are kept apart here.

The subject of this data set is rats.

Regarding `OCCCO` [1,3-propanediol], the “LD50 value (median lethal dose)” value (rats per os) was 16,080 mg/kg. Consider `OCCCCO` [1,4-butanediol], for which, under “rat, in vivo”, the “LD50 value (median lethal dose)” value was 1,525 mg/kg.
